Patent US7723328B2, “Methods of facilitating cell survival using neurotrophin mimetics” (The University of North Carolina at Chapel Hill, priority 2005, dated 2010)
“Also recorded” adds a separate entry of the source. Values belong to the molecule of their own block, whether it stands above or below them.

How the values were obtained:
[1] = test system: E16-17 mouse hippocampal neurons; test: Hippocampal neuron survival (morphology plus MTT conversion); type: cell-based; conditions: for neurotrophic activity (neuron survival response): 48 h, counts normalized to 25 ng/ml BDNF or baseline, up to 5 nM
Experimental: (§1) Hippocampal neurons were prepared from E16-17 mouse embryos as previously described (Yang. T. et al. (2003) J Neurosci 23, 3353-3363). […] For studies employing p75^NTR+/+ and p75^NTR−/− neurons, mice carrying a mutation in exon 3 of the p75^NTR gene (Lee, K. F. et al. (1992) Cell 69, 737-749) were bred onto a B6 congenic background (>10 B6 backcrosses).
(§2) After 48 hours in culture, cell survival was assessed as previously described (Longo, F. M., Manthorpe. M., Xie. Y. M., Varon, S. (1997) J Neurosci Res 48, 1-17) using a combination of standard morphological criteria along with visual determination of whether a given cell converted MTT to its blue formazan product. The number of surviving neurons was determined by counting the total number of cells in each well that were both morphologically intact and filed with blue product (Longo F. M., Manthorpe. M., Xie, Y. M., Varon, S. (1997) J Neurosci Res 48, 1-17). For each neurotrophin or compound concentration, duplicate wells were counted and the resulting values averaged. Activity of each compound was confirmed by blinded counts. Counts were normalized to survival achieved with 25 ng/ml BDNF or to baseline survival. Fitting of dose-responsive curves was performed with Sigmaplot obtained from SYSTAT Software Inc. (Richmond, Calif., United States of America).

chicken DRG neuronal = test: Chicken DRG neuronal survival assay; type: cell-based; conditions: preliminary screening
AKT = AKT activation western blot in hippocampal cultures; type: cell-based, mouse
Experimental: (§3) For assays of Trk, AKT, NFκB, and ERK activation, hippocampal neurons derived from E16-17 mice were cultured in poly-L-lysine coated six-well plates (Corning, Inc., Corning, N.Y., United States of America) in DMEM containing 10% FBS, followed by incubation in serum-free DMEM for 2 hours before addition of neurotrophins or compounds. At the indicated time points, neurons were harvested in lysis buffer consisting of: 20 mM Tris, pH 8.0, 137 mM NaCl, 1% Igepal CA-630, 10% glycerol, 1 mM PMSF, 10 μg/ml aprotinin, 1 μg/ml leupeptin, 500 μM orthovanadate (Zhou, J., Valletta, J. S., Grimes, M. L., Mobley, W. C. (1995) J Neurochem 65, 1146-1156).
(§4) Lysates were centrifuged, the supernatant collected, and protein concentrations determined using the BCA Protein Assay Reagent obtained from Pierce (Rockford, Ill., United States of America). Western blots were performed as described previously (Yang, T. et al. (2003) J Neurosci 23, 3353-3363). Western blot signals were detected using the ECL Chemiluminescence System obtained by Amersham (Piscataway, N.J., United States of America) (Yang, T. et al. (2003) J Neurosci 23, 3353-3363).

hippocampal neurons [2] = test: Hippocampal neuron survival with signaling pathway inhibitors; type: cell-based, mouse; conditions: BDNF/NGF 25 ng/ml, compounds 5 nM, 48 h; for effect of PD98059 (ERK inhibitor) on survival promoted by the substance: PD98059 50 μM
Experimental: as §1, §2
(§5) For all studies applying signaling inhibitors, p75^NTR antibodies or p75^NTR−/− neurons, survival was assessed at 48 hours.

mature oligodendrocytes = test: Oligodendrocyte cell death assay (MBP/TUNEL) with or without proNGF; type: cell-based, rat; conditions: 24 h
Experimental: Cortical oligondendrocytes from rat pups were prepared as previously described (Yoon et al. (1998) J Neurosci 18, 3273-3281, Harrington, A. W., Kim, J. Y., Yoon, S. O. (2002) J Neurosci 22, 156-166). Cells were treated with recombinant, cleavage-resistant proNGF at 0.05 nM (2.8 ng/ml). Controls were treated with equivalent volumes of proNGF purification buffer containing 350 mM imidazole. 24 hours after treatment, the cells were fixed and processed for MBP and TUNEL staining as previously described (Beattie, M. S. et al. (2002) Neuron 36, 375-386). 200-250 cells were counted per well, for a minimum of 600 cells per experimental condition.

p75^NTR−/− cells = test: Survival of p75NTR+/+ versus p75NTR-/- hippocampal neurons; type: cell-based, mouse; conditions: neurotrophins 1.8 nM, compounds 5 nM
Experimental: as §1, §2, §5

hippocampal neurons [3] = test: Hippocampal neuron survival with p75NTR antisera (antibody inhibition); type: cell-based, mouse; conditions: antiserum 1:100, 48 h
Experimental: as §1, §2, §5

p75^NTR-Fc = molecular target: T1, p75^NTR-Fc (Homo sapiens, UniProt P08138); test: NGF/p75NTR-Fc binding by NGF ELISA, Gaddum/Schild fit
T1 construct: purchased R&D Systems
Experimental: (§6) Briefly, 96-well plates were incubated with 0.1 pmol (at 1 nM) of p75/Fc or TrkA/Fc recombinant protein obtained from R&D System (Minneapolis, Minn., United States of America) overnight at 4° C. followed by incubation with blocking buffer for 1 hour at room temperature. […] Plates were then washed five times with Tris-buffered saline (TBS) containing 0.05% Tween-20 and incubated with anti-NGF rabbit polyclonal antibody overnight at 4° C. Following five washes with TBS, wells were incubated for 2.5 hours at room temperature with anti-rabbit IgG HRP conjugate and washed five times. 3,3′,5,5′-tetramethyl-benzidine substrate was added and the optical density measured at 450 nm.
A regression analysis of NGF-p75^NTR binding in the presence of the p75-binding compounds was performed. The data was fit using the Nonlinear Regression module of Sigmaplot, to a modification of the Gaddum/Schild equation (adapted from Motulsky, H. J., and Christopoulos. A. (2003) A Practical Guide to Curve Fitting, 2nd edn. (San Diego, Calif., GraphPad Software, Inc.): […]

p75^NTR = molecular target: T2, p75^NTR (Homo sapiens, UniProt P08138); test: proNGF binding to p75NTR by ELISA; conditions: 100 ng/ml proNGF
T2 construct: purchased R&D Systems
Experimental: as §6

E17 hippocampal neurons = test: Aβ-induced death of hippocampal neurons; type: cell-based; conditions: Aβ1-42 10 μM
Experimental: Using previously well established protocols, Aβ was preincubated for 3 days in water to allow formation of oligomers. E17 hippocampal neurons were incubated for 5 days to allow for maturation prior to addition of Aβ with test compounds.

NFκB-p65 = NFκB-p65 phosphorylation western blot in hippocampal cultures; type: cell-based, mouse; conditions: 20 nM
Experimental: as §3, §4

TrkA-Fc = test: NGF/TrkA-Fc binding by NGF ELISA; conditions: up to 10,000 nM compound
Experimental: as §6

ERK42 = ERK42 activation western blot in hippocampal cultures; type: cell-based, mouse; conditions: compounds 20 nM, BDNF/NGF 50 ng/ml; 10 and 30 min
Experimental: as §3, §4

TrkB = molecular target: T3, TrkB (Mus musculus, UniProt P15209); test: Trk Y490 phosphorylation western blot in hippocampal neuron cultures; type: cell-based; conditions: 10 or 30 minutes
T3 construct: endogenous in cells; host or cells: primary hippocampal neurons from E16-17 mouse embryos
Experimental: as §3, §4

T1 sequence (P08138 with tags, fused parts or gaps limits assumed): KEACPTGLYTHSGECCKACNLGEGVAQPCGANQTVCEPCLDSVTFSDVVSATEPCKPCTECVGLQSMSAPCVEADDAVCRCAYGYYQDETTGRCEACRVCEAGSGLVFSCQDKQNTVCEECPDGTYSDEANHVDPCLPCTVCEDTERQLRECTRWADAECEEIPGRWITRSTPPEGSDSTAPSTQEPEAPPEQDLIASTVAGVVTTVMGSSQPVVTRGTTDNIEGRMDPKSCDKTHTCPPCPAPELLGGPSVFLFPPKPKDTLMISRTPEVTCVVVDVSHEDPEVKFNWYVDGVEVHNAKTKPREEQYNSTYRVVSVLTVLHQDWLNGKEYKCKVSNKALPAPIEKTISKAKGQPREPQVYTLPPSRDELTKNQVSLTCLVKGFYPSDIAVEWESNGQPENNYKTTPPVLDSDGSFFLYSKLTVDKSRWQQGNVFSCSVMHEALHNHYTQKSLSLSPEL
T2 sequence (P08138 with tags, fused parts or gaps limits assumed): as above
T3 sequence (P15209 32-821): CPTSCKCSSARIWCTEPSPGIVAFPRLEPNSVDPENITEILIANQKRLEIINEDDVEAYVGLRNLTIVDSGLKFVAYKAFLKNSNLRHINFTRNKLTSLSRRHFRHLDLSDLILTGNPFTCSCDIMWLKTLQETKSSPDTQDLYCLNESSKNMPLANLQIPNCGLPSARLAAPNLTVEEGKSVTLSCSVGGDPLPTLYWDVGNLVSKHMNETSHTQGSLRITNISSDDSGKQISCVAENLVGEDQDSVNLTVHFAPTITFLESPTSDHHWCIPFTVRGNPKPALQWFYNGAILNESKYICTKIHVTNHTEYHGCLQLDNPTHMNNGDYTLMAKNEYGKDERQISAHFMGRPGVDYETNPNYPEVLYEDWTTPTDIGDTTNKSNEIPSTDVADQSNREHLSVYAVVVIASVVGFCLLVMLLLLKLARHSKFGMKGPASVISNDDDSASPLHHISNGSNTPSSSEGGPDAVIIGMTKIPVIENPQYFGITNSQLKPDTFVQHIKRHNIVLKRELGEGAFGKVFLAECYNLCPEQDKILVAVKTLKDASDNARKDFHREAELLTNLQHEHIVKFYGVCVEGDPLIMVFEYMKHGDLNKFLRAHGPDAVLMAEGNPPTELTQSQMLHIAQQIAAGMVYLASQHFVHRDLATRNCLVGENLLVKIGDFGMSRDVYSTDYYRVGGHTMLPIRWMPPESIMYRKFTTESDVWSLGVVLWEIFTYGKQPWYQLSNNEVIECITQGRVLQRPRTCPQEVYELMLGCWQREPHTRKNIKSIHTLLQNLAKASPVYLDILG

Molecule: NCCNc1ccc([N+](=O)O)c(N2CCCCC2)c1 [Compound 1]
neurotrophic activity (neuron survival response) [1]: active
activity in DRG neuronal survival (chicken DRG neuronal): active

compound concentration at which binding curve differs from 0 nM curve (P<0.0001) (p75^NTR-Fc; ANOVA with post-hoc Bonferroni/Dunn): ≥ 125 nM
Schild coefficient (p75^NTR-Fc; Gaddum-Schild fit): 0.26 +/−0.01
shift of the NGF/p75NTR-Fc binding curve (p75^NTR-Fc; increasing compound concentrations): significantly to the right
proNGF ELISA signal versus proNGF alone (p75^NTR; P<0.01): significantly less than proNGF alone
decrement of proNGF binding to p75NTR (p75^NTR; at the highest concentration (range 1500 nM to 10,000 nM)): approximately 30%
Molecule: CN(C)CCCNC(=O)Cn1cnc2c1c(=O)n(C)c(=O)n2C [Compound 3]
onset of AKT activation (AKT; 20 nM, relative to NGF): slower than that of NGF
effect of PD98059 (ERK inhibitor) on survival promoted by the substance (hippocampal neurons [2]): no significant decrease
effect of SN50 (NFκB translocation inhibitor) on survival promoted by the substance (hippocampal neurons [2]; SN50 2.5 μg/ml): significantly reduced
inhibition of proNGF-induced oligodendrocyte death (mature oligodendrocytes; 2.8 ng/ml (0.05 nM) proNGF): significantly inhibited; also recorded: blocked cell death
promotion of oligodendrocyte cell death by compound alone (mature oligodendrocytes; absence of proNGF): did not promote cell death
effect of p75NTR-deficiency on promotion of neuron survival by the substance (p75^NTR−/− cells): completely inhibits
effect of Ab 9651 on promotion of neuron survival by the substance (hippocampal neurons [3]): completely blocked; also recorded: completely inhibits
survival versus CM in the presence of Ab 9651 (hippocampal neurons [3]): not significant
additive effect on survival with NGF ([1]; 5 nM compound along with 50 ng/ml NGF): no additive effect on survival
protection against Aβ1-42-induced death (E17 hippocampal neurons; NGF at 100 pg/ml): blocks Aβ-induced death with a dose-response effect
EC50 (E17 hippocampal neurons; Hippocampal neuron, read-out: EC50 for blocking Aβ-induced death): ~0.01 µM
increase in NFκB-p65 phosphorylation (NFκB-p65): approximately 1.5 fold
effect on NGF binding to TrkA-Fc (TrkA-Fc): did not affect; also recorded: no compound effects up to 10,000 nM

Molecule: N=C(N)NC(=N)NCCNC(=N)NC(=N)N [Compound 7]
neurotrophic activity (neuron survival response) [1]: active
activity in DRG neuronal survival (chicken DRG neuronal): active

B1: BDNF: brain-derived neurotrophic factor from Sigma-Aldrich (protein, UniProt P23560 19-247, looked up)
Neurotrophic factor BDNF …: APMKEANIRGQGGLAYPGVRTHGTLESVNGPKAGSRGLTSLADTFEHVIEELLDEDQKVRPNEENNKDADLYTSRVMLSSQVPLEPPLLFLLEEYKNYLDAANMSMRVRRHSDPARRGELSVCDSISEWVTAADKKTAVDMSGGTVTVLEKVPVSKGQLKQYFYETKCNPMGYTKEGCRGIDKRHWNSQCRTTQSYVRALTMDSKKRIGWRFIRIDTSCVCTLTIKRGR
AKT activation (AKT; compounds 20 nM, BDNF/NGF 50 ng/ml, 10 and 30 min): substantially greater response
effect of PD98059 (ERK inhibitor) on survival promoted by the substance (hippocampal neurons [2]): significantly decreased; also recorded: small effects
ERK42 activation (ERK42): greater with BDNF and NGF treatment than with the p75-binding compounds; also recorded: prolonged activation
effect of p75NTR-deficiency on promotion of neuron survival by the substance (p75^NTR−/− cells): partial responsiveness; also recorded: partially inhibits
survival in p75NTR−/− cultures, comparison of treatments (p75^NTR−/− cells): greater survival than NGF
TrkB activation (Trk Y490 phosphorylation) (TrkB): robust Trk activation; also recorded: activated TrkB
effect of Ab 9651 on promotion of neuron survival by the substance (hippocampal neurons [3]): partially blocked; also recorded: partially inhibits
survival versus CM in the presence of Ab 9651 (hippocampal neurons [3]): significantly greater than CM+Ab 9651
